Reference: US20230082287A1, “METHODS OF TREATING AN INFLAMMATORY OR OBSTRUCTIVE AIRWAY DISEASE USING ANTI-TSLP ANTIBODY” (Novartis AG, priority 2020, published 2023)

Legend:
[1] = system: late asthmatic response (LAR); conditions: 400/12 μg; J ALLERGY CLIN IMMUNOL VOLUME 119, NUMBER 2, pp 322-327; cited from earlier work
[2] = system: late asthmatic response (LAR); experiment: Published allergen challenge LAR data for budesonide/formoterol; format: in vivo; conditions: 400/12 μg; calculated from published data
Description: Published data from other widely asthma treatment budosenide/formoterol (ICS/LABA, inhaled corticosteroid+long-acting beta agonist) combination was used in a similar fashion to calculate its efficacy and results compared with CSJ117 in Table 10.

Substance: Budesonide/formoterol
- LAR Treatment (A), maximal fall % FEV1 [1]: 4.2%
- E, % [(B-A)/B]*100 [2]: 80.2%
- LAR B-A (placebo minus treatment), maximal fall % FEV1 [2]: 17
